Measured values: PMC12521527, “In vivo self-assembled nano-PROTAC for the dual degradation of AR and HSP90 to overcome castration-resistant prostate cancer resistance” (Signal Transduction and Targeted Therapy, 2025)
Numbered stars: 1 amine (or outer) side, 2 acyl side, 3 side chain; on linkers, the order of the positions; unused ones are H or OH. Square brackets hold non-standard residues; d marks the D form. Peptide text beside a SMILES is read from it. * marks the point of attachment. X2 = CC1(C)C(=O)N(c2ccc(C#N)c(C(F)(F)F)c2)C(=S)N1c1ccc(C(=O)*)c(F)c1; X1 = O=C1CCC(N2C(=O)c3cccc(N(CC(=O)[*:2])[*:1])c3C2=O)C(=O)N1; EuK = O=C(O)CC[C@H](NC(=O)N[C@@H](CCCCN*)C(=O)O)C(=O)O; 2Nal = N[C@@H](Cc1ccc2ccccc2c1)C(=O)O

How the values were obtained:
[1] = target: T1, AR (Homo sapiens, UniProt P10275, T878A); assay: Western blot AR degradation in LNCaP cells; assay type: cell-based
T1 construct: endogenous in cells; host or cells: LNCaP
T1 sequence (P10275 whole entry T878A): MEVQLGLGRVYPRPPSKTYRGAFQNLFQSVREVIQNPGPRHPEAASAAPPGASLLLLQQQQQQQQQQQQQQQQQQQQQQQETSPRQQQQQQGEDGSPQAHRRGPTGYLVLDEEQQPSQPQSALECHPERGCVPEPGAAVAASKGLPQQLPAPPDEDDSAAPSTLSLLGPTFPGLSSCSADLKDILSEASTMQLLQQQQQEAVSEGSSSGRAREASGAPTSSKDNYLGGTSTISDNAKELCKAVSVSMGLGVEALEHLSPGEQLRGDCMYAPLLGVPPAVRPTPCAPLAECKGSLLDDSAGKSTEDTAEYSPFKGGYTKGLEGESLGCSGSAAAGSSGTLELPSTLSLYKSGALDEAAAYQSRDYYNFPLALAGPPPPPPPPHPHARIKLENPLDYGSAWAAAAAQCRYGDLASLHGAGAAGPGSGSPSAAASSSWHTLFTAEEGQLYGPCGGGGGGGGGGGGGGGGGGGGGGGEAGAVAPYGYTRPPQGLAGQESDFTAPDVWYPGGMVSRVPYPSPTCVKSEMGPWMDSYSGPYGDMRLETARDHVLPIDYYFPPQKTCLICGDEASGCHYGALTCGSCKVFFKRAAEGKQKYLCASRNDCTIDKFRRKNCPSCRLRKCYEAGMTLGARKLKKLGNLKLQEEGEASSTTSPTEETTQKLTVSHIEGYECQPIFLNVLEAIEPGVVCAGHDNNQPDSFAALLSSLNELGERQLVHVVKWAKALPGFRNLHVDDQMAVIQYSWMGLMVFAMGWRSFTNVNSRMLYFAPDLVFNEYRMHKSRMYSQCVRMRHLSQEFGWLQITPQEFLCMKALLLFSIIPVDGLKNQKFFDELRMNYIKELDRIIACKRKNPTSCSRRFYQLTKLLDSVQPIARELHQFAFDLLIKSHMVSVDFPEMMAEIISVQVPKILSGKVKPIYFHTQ
T1 sequence (Q16531 whole entry, further chain): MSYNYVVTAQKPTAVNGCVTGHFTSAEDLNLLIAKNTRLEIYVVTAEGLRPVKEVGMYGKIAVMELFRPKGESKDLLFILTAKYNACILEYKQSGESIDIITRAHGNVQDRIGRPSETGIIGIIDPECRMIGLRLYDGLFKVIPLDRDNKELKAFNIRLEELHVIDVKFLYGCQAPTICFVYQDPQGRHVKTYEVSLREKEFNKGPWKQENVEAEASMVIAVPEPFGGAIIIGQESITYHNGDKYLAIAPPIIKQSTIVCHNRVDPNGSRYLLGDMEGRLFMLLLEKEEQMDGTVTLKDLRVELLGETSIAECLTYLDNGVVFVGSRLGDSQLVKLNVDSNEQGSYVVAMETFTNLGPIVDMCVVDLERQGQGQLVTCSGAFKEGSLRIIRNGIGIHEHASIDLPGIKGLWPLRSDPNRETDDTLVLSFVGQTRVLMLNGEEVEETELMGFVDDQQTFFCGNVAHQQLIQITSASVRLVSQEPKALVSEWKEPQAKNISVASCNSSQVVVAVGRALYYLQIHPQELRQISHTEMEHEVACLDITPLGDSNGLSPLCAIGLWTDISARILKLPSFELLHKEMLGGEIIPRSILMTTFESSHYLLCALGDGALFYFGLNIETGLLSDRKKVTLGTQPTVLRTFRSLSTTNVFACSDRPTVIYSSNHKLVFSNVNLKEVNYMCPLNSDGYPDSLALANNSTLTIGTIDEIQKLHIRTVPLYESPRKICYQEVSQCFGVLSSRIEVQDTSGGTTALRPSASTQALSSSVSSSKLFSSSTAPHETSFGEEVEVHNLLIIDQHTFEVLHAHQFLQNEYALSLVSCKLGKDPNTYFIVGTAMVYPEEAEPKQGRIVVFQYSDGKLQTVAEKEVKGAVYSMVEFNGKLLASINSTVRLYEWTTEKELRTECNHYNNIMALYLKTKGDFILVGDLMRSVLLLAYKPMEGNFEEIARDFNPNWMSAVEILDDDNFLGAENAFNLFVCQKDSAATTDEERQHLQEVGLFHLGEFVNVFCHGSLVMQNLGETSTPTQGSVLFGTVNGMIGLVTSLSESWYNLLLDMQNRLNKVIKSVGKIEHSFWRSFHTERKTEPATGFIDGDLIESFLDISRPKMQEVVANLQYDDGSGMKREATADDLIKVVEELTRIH
T1 sequence (Q96SW2 whole entry, further chain): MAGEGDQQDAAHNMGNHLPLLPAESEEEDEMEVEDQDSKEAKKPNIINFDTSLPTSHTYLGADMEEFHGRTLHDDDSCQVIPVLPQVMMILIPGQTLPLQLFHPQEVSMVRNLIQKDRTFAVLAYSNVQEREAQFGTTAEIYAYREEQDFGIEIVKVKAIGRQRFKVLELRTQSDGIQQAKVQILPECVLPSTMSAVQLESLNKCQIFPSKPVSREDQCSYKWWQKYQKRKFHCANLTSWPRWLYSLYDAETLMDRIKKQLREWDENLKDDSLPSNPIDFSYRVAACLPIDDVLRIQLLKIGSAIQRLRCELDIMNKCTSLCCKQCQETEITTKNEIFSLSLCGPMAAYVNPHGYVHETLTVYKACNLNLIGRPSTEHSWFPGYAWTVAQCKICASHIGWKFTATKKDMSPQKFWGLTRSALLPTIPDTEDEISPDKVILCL
Protocol: All uncropped blots are presented in Supplementary Fig. 26. j, k Representative 22Rv1 cell CLSM images of the degradation of AR after incubation with FITC-labeled Psa-AR for 12 h and quantitative analysis, n = 3 per group. Scale bar: 10 μm. l, m Representative 22Rv1 cell CLSM images of the degradation of HSP90 after incubation with FITC-labeled Psa-AR for 12 h and quantitative analysis, n = 3 per group. Scale bar: 10 μm. n AR-V7 expression in 22Rv1 cells after treatment with PBS, P-AR (20 μM), Psa-AR (20 μM) or Psa-AR (20 μM) combined with MG132 (2 μM) for 48 h, as determined by western blotting. β-Actin was used as an internal reference. o Results of apoptosis in 22Rv1 cells treated with PBS, P-AR (20 μM), or Psa-AR (20 μM) for 48 h, as detected by flow cytometry.
The pretreated cells were resuspended in lysis buffer containing 50 mM Tris-HCl (pH 8.0), 150 mM NaCl, 1% (v/v) Triton X-100, and protease inhibitors. The protein concentration was determined via a BCA kit (Applygen). Each sample ([…]) was subjected to SDS‒PAGE and then transferred to a PVDF membrane. The blots were blocked in 5% (wt/v) blocking buffer. After washing three times with TBST buffer (10 mM TBS solution containing 0.1% (v/v) Tween-20), the blots were incubated with primary antibodies at 4 °C on a shaker for 16 h. After washing with TBST buffer three times, the blot was incubated with secondary antibodies at room temperature on a shaker for 2 h. After being washed three times with TBST buffer, the blots were subsequently scanned on a Typhoon Trio Variable Mode Imager.

[2] = system: 22Rv1 xenograft tumor; assay: Antitumor efficacy in 22Rv1 xenograft mice; assay type: in vivo, BALB/c nude mice; settings: dose study, intravenous every 48 h, five cycles, 20 days

CC1(C)C(=O)N(c2ccc(C#N)c(C(F)(F)F)c2)C(=S)N1c1ccc(C(=O)NCCCC[C@H](NC(=O)CNc2cccc3c2C(=O)N(C2CCC(=O)NC2=O)C3=O)C(=O)N[C@@H](CS)C(=O)N[C@@H](CCC(N)=O)C(=O)N[C@@H](Cc2ccc(O)cc2)C(=O)N[C@@H](CC(N)=O)C(=O)N[C@@H](CCC(N)=O)C(=O)N[C@@H](Cc2ccc(O)cc2)C(=O)N[C@@H](Cc2ccc(O)cc2)C(=O)N[C@@H](Cc2ccc3ccccc3c2)C(=O)NCCCC[C@H](NC(=O)N[C@@H](CCC(=O)O)C(=O)O)C(=O)O)c(F)c1 (some centres unmarked) [Psa-AR] (H-[X1]K(X2)CQYNQYY[2Nal]-EuK)
AR degradation rate ([1]; LNCaP cells, time-dependent evaluation): 97% | DC50 ([1]; read-out: DC50 for AR protein degradation, LNCaP cell line, 1 to 100 μM): 11.4 µM | superior AR degradation efficiency relative to P-AR ([1]; western blot, LNCaP, 20 μM, 48 h): 49% | FTIR amide I peak with PSMA: 1630 cm⁻¹ | mean tumor volume at 10 mg/kg [2]: 220 mm^3
